Laboratory results: the OPERA property sets (Mansouri et al. 2018)

Compound `C=CCc1ccc2c(c1)OCO2` has a boiling point of 234 °C, a log10 Koc (L/kg) of 2.83 and a melting point of 11.2 °C. For `C[Si]1(C)N[Si](C)(C)N[Si](C)(C)N1`, the boiling point was 188 °C and the melting point was -10 °C. In the case of `CCCC(O)CO` (centres undefined), the boiling point is reported as 206 °C and the melting point is reported as 104 °C. Compound `NS(=O)(=O)c1cc(Cl)c(Cl)c(S(N)(=O)=O)c1` has a melting point of 229 °C. With `CC(C)(C)OO` the log10 vapour pressure (mmHg) was 0.738, the melting point was -8 °C and the ready biodegradability was “not readily biodegradable”. For `CCCCCC(C)Br` (centres undefined), the boiling point was 166 °C, the log10 vapour pressure (mmHg) was 0.358 and the melting point was 47 °C. For `Cc1ccc(S(=O)(=O)Cl)cc1`, the melting point was 71 °C and the ready biodegradability was “readily biodegradable”. `Cc1cnc(C)c(C)c1` gave a boiling point of 184 °C. For `Cn1cccc1`, the boiling point was 115 °C, the log10 vapour pressure (mmHg) was 1.33 and the ready biodegradability was “readily biodegradable”. Compound `Clc1ccc(-c2nc3c4ccccc4ccn3n2)cc1` has a melting point of 239 °C. `Clc1ccc2c(c1)oc1c(Cl)c(Cl)cc(Cl)c12` gave a melting point of 190 °C. `Cc1cc([N+](=O)[O-])ccc1Cl` showed a boiling point of 249 °C and a melting point of 42.5 °C. With `CCSC(=O)N(CC)C1CCCCC1` the log10 Koc (L/kg) was 2.54, the log10 vapour pressure (mmHg) was -2.7 and the melting point was 11.5 °C. For the same compound, the ready biodegradability was “not readily biodegradable”. Work on `CCOc1ccc(Cc2nc(C)cc3cc(OC)c(OC)cc23)cc1OC` yielded a melting point of 124 °C. Compound `CCn1cc(C(=O)O)c(=O)c2ccc(-c3ccncc3)cc21` has a melting point of 290 °C. Compound `Cc1cc(C)cc(-c2ccccc2)c1` has a boiling point of 274 °C and a melting point of 22.5 °C. Compound `OC[C@H]1O[C@@](CO)(O[C@H]2O[C@H](CO)[C@@H](O)[C@H](O)[C@H]2O)[C@@H](O[C@H]2O[C@H](CO)[C@@H](O)[C@H](O)[C@H]2O)[C@@H]1O` has a melting point of 153 °C. `O=C(O)CCCCCCCCCCCCCCCCCCC(=O)O` showed a melting point of 126 °C. Compound `CC(O)CC(F)(F)F` (centres undefined) has a boiling point of 99.8 °C. In the case of `CCCCCCCCCCCCCCCCCCCCCC(=O)O`, the melting point is reported as 81 °C. `CN(c1ccccc1)c1ccccc1` showed a boiling point of 294 °C, a log10 vapour pressure (mmHg) of -2.51 and a melting point of -7.5 °C. `CO[C@H]1O[C@H](CNC(=O)N(CCCl)N=O)[C@@H](O)[C@H](O)[C@H]1O` gave a melting point of 111 °C. Compound `CNC(=O)C(C)(C(C)C)C(C)C` has a melting point of 60 °C. `Nc1ccc(N)c2c1C(=O)c1ccccc1C2=O` gave a log10 vapour pressure (mmHg) of -9.7 and a melting point of 268 °C. For `CCOC(=O)C1(C(=O)OCC)CCCC1`, the boiling point was 210 °C. `CCC(CC)C(=O)O` gave a boiling point of 194 °C, a log10 vapour pressure (mmHg) of -0.726 and a melting point of -31.8 °C. For the same compound, the ready biodegradability was “readily biodegradable”. `CC(C)(C)CBr` gave a boiling point of 106 °C. `O=C(Cl)C1CCCCC1` showed a boiling point of 180 °C. With `CN(C)c1ccc(/N=N/c2ccccc2C(=O)O)cc1` the melting point was 183 °C. `CC=Cc1ccc2c(c1)OCO2` gave a boiling point of 253 °C and a melting point of 8.2 °C. For `O=C[C@H](O)CO`, the melting point was 145 °C. For `O=C(O)c1ccc([N+](=O)[O-])cc1`, the melting point was 242 °C and the ready biodegradability was “readily biodegradable”. `CCSC(C)=O` gave a boiling point of 116 °C. Compound `CC(C)/N=c1/cc2n(-c3ccc(Cl)cc3)c3ccccc3nc-2cc1Nc1ccc(Cl)cc1` has a melting point of 211 °C. With `Nc1ccc(CCc2ccc(N)cc2)cc1` the melting point was 137 °C. For `C1CCCNCC1`, the boiling point was 138 °C, the log10 Henry constant (atm·m³/mol) was -5.21 and the log10 vapour pressure (mmHg) was 0.908. `C[C@H]1[C@H](C)CC[C@]2(C(=O)O)CC[C@]3(C)C(=CC[C@@H]4[C@@]5(C)CC[C@H](O)C(C)(C)[C@@H]5CC[C@]43C)[C@H]12` gave a melting point of 284 °C. `CCOP(=S)(OCC)OP(=S)(OCC)OCC` gave a log10 vapour pressure (mmHg) of -3.98. With `CC(C)C1(C)N=C(c2nc3ccccc3cc2C(=O)O)NC1=O` (centres undefined) the log10 Koc (L/kg) was 1.3, the melting point was 221 °C and the ready biodegradability was “not readily biodegradable”. With `CC(=O)c1ccc(C(C)=O)cc1` the melting point was 112 °C. For `O=C(O)c1c(Cl)cccc1Cl`, the melting point was 144 °C and the ready biodegradability was “not readily biodegradable”. With `Cc1ccc([N+](=O)[O-])c2ccccc12` the melting point was 71.5 °C. `CC(C)(C)CC(=O)OCC(=O)[C@@]1(O)CC[C@H]2[C@@H]3CCC4=CC(=O)CC[C@]4(C)[C@H]3[C@@H](O)C[C@@]21C` gave a melting point of 168 °C. `CC(C)(C)NC(=O)COC(=O)c1ccccc1` gave a melting point of 112 °C. For `CN1CCc2c(c3ccccc3n2Cc2ccccc2)C1`, the melting point was 95 °C. `Clc1cccc(-c2cccc(Cl)c2Cl)c1` gave a log10 Henry constant (atm·m³/mol) of -3.8. For `c1ccc(Cn2cncn2)cc1`, the melting point was 49 °C. `CCC1CCC(=O)O1` (centres undefined) gave a boiling point of 216 °C and a melting point of -18 °C. `CC(=O)C=C(C)C` gave a boiling point of 130 °C, a log10 vapour pressure (mmHg) of 0.914 and a melting point of -59 °C. For the same compound, the ready biodegradability was “readily biodegradable”. With `COc1ccccc1N` the boiling point was 224 °C, the log10 vapour pressure (mmHg) was -1.1 and the melting point was 6.2 °C. The ready biodegradability was “readily biodegradable”. In the case of `CC(Cl)=CCCl`, the boiling point is reported as 131 °C. `C[C@]12C=CC(=O)C=C1CC[C@H]1[C@@H]3C[C@@H](O)[C@](O)(C(=O)CO)[C@@]3(C)C[C@H](O)[C@@]12F` gave a melting point of 270 °C. Work on `C=C(C)[C@@H]1CC[C@@H](C)C[C@@H]1O` yielded a melting point of 78 °C. For `O=C(c1ccccc1)c1cccc(C(F)(F)F)c1`, the melting point was 52.5 °C. In the case of `CCCC(Cn1cncn1)c1ccc(Cl)cc1Cl` (centres undefined), the log10 vapour pressure (mmHg) is reported as -5.56 and the melting point is reported as 58.5 °C. Work on `O=C(O)C(Br)CBr` (centres undefined) yielded a melting point of 66.5 °C. Compound `C[Si](C)(Cl)O[Si](C)(C)O[Si](C)(C)Cl` has a boiling point of 184 °C and a melting point of -53 °C. In the case of `Cc1cccc(O)c1`, the boiling point is reported as 202 °C, the log10 Henry constant (atm·m³/mol) is reported as -6.07 and the log10 vapour pressure (mmHg) is reported as -0.959. For the same compound, the melting point was 11.8 °C and the ready biodegradability was “readily biodegradable”. In the case of `Cc1ccc2c(c1)CCCC2(C)C`, the boiling point is reported as 240 °C. Work on `CCCN(CCC)C(=O)COC(=O)c1ccccc1` yielded a melting point of 20 °C. In the case of `O=C(O)COc1ccc(Cl)c(Cl)c1`, the melting point is reported as 139 °C. With `C=CC(F)(F)C(F)(F)C(F)(F)C(F)(F)C(F)(F)C(F)(F)F` the boiling point was 104 °C.
